The assay addresses human σ1 receptor (Homo sapiens, UniProt Q99720). The experiment in a line: Human σ1 receptor radioligand assay ([3H](+)-pentazocine, transfected HEK-293 membranes). The format is binding. The settings on record: one class symbol for both Ki-σ1 (human σ1 receptor, A1) and Ki-μ (human μ-opioid receptor, A2); read-out: μ and σ1 dual binding. The method in brief: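 Membranes from HEK-293 cells transfected with human σ1 receptor (7 μg) incubated with 5 nM [3H](+)-pentazocine in 50 mM Tris-HCl pH 8, 120 min at 37° C. Non-specific binding defined with 10 μM haloperidol. Bound radioligand separated by filtration, washed with ice-cold 10 mM Tris-HCl pH 7.4, and counted by scintillation.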

Sequence of human σ1 receptor (Q99720 whole entry): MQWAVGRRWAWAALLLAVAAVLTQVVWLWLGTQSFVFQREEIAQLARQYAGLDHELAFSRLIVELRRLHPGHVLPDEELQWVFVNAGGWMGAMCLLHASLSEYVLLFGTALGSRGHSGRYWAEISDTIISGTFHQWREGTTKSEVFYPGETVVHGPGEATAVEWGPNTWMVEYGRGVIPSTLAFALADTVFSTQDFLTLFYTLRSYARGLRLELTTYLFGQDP

Take `CC(C)OCCN(C)C1CN(C2(C(=O)c3ccccn3)CCOC(C)(C)C2)C1` (stereo not drawn) [Example 23, (4-(3-((2-isopropoxyethyl)(methyl)amino)azetidin-1-yl)-2,2-dimethyltetrahydro-2H-pyran-4-yl)(pyridin-2-yl)methanone]: the Ki was more than 500 nM.

As for `CC(C)CN1CCN(C2(C(=O)c3ccccn3)CCOC(C)(C)C2)CC1` (stereo not drawn) [Example 14, (4-(4-isobutylpiperazin-1-yl)-2,2-dimethyltetrahydro-2H-pyran-4-yl)(pyridin-2-yl)methanone], the Ki is more than 500 nM.

For the molecule `CC1(C)CC(C(=O)c2ccccn2)(N2CCN(CCc3ncccc3Cl)CC2)CCO1` (stereo not drawn) [Example 56, (4-(4-(2-(3-chloropyridin-2-yl)ethyl)piperazin-1-yl)-2,2-dimethyltetrahydro-2H-pyran-4-yl)(pyridin-2-yl)methanone], the Ki is more than 500 nM.

(Values after patent US10807970B2 (priority 2016, dated 2020).)
